Legend:
[1] = molecular target: T1, BCR-KIT BaF3 cells (Homo sapiens, UniProt P10721); assay: BaF3 BCR-KIT cell proliferation assay (ATPlite); assay type: cell-based; settings: read-out: Inhibition of Cell Proliferation IC50, BCR/BaF3 Kit
T1 construct: fused on or other part: P11274 (Breakpoint cluster region protein)
Method in brief: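 Proliferation was run for 3 days at 37 °C against 8-point 1:3 titrations with 10 μM as the top final concentration. Seeding was 10,000 cells/well for BaF3 BCR-fusion lines, grown without IL-3, and 25,000 cells/well for MV-4-11. IC50 was derived from ATPlite luminescence read as cell number.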

[2] = molecular target: c-Kit kinase (Homo sapiens, UniProt P10721); assay: c-Kit kinase biochemical activity assay (AlphaScreen, biotin-(E4Y)10 phosphorylation); settings: 100 μM ATP; read-out: Biochemical Inhibition IC50 Kit
Method in brief: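 AlphaScreen read-out (streptavidin donor, anti-phosphotyrosine PY20 acceptor beads, EDTA stop) of c-Kit activity. Reaction: 0.75 ng kinase, 100 µM ATP, 30 nM biotin-(E4Y)10, 25 mM HEPES pH 7.5, 2 mM MgCl2, 2 mM MnCl2, 5% DMSO, 1 h room temperature. IC50 derived over an 8-point, two-fold dilution series.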

T1 sequence (P10721 589-937): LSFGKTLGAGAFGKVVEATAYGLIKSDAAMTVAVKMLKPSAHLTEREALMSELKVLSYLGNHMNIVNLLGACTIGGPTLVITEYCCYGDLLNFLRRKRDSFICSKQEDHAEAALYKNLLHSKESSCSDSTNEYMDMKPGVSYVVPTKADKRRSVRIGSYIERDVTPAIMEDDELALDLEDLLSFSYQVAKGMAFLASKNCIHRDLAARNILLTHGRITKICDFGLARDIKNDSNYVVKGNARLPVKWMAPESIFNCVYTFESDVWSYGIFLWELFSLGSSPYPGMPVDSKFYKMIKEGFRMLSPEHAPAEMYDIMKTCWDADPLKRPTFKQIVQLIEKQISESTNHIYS
Sequence of c-Kit kinase (P10721 26-976): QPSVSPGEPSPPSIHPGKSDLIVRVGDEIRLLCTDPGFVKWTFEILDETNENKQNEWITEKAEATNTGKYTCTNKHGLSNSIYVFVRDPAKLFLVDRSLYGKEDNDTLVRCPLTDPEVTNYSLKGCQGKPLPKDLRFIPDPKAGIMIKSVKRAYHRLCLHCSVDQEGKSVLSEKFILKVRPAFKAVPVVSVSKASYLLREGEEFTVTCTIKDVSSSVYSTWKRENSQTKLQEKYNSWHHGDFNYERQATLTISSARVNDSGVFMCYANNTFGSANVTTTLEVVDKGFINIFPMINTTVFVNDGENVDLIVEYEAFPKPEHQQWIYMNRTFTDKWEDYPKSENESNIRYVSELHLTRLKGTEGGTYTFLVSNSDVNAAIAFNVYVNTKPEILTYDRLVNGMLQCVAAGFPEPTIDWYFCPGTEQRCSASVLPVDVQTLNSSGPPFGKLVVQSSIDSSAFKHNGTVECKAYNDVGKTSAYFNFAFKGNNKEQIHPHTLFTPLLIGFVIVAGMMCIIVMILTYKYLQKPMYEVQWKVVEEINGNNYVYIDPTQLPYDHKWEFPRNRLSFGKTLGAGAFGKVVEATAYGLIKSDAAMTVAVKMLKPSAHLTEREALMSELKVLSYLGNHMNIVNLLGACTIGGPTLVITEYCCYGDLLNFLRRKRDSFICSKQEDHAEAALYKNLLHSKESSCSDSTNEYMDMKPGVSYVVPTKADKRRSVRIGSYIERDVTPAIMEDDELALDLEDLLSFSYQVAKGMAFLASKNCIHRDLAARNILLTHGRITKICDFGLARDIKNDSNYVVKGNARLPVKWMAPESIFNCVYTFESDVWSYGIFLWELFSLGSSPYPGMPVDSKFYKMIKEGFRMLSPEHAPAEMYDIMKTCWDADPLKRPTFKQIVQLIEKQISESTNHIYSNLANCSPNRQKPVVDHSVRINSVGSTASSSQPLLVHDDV

SMILES	IC50 [1] [nM]	IC50 [2] [nM]
Cc1ccc(Nc2ccc(Cc3c[nH]c4ncc(Cl)cc34)c(F)n2)cn1 [Compound P-3042, [5-(5-Chloro-1H-pyrrolo[2,3-b]pyridin-3-ylmethyl)-6-fluoro-pyridin-2-yl]-(6-methyl-pyridin-3-yl)-amine]	< 1000	< 100
Cc1cnc2[nH]cc(C(=O)c3ccc(Nc4ccc(C)nc4)nc3F)c2c1 [Compound P-3043, [2-Fluoro-6-(6-methyl-pyridin-3-ylamino)-pyridin-3-yl]-(5-methyl-1H-pyrrolo[2,3-b]pyridin-3-yl)-methanone]	< 1000	< 1000
Cc1ccc(Nc2ccc(C(=O)c3c[nH]c4ncc(Cl)cc34)c(F)n2)cn1 [Compound P-3044, (5-Chloro-1H-pyrrolo[2,3-b]pyridin-3-yl)-[2-fluoro-6-(6-methyl-pyridin-3-ylamino)-pyridin-3-yl]-methanone]	< 1000	< 1000
CCOc1ccc(Nc2ccc(C(=O)c3c[nH]c4ncc(C)cc34)c(F)n2)cn1 [Compound P-3045, [6-(6-ethoxy-pyridin-3-ylamino)-2-fluoro-pyridin-3-yl]-(5-methyl-1H-pyrrolo[2,3-b]pyridin-3-yl)-methanone]	< 1000	< 1000
CCc1ccc(Nc2ccc(Cc3c[nH]c4ncc(C)cc34)c(F)n2)cn1 [Compound P-3048, (6-Ethyl-pyridin-3-yl)-[6-fluoro-5-(5-methyl-1H-pyrrolo[2,3-b]pyridin-3-ylmethyl)-pyridin-2-yl]-amine]	< 100	< 100
CCc1ccc(Nc2ccc(C(=O)c3c[nH]c4ncc(C)cc34)c(F)n2)cn1 [Compound P-3049, [6-(6-Ethyl-pyridin-3-ylamino)-2-fluoro-pyridin-3-yl]-(5-methyl-1H-pyrrolo[2,3-b]pyridin-3-yl)-methanone]	< 100	< 100
Cc1cnc2[nH]cc(Cc3ccc(Nc4ccc(C5CC5)nc4)nc3F)c2c1 [Compound P-3050, (6-Cyclopropyl-pyridin-3-yl)-[6-fluoro-5-(5-methyl-1H-pyrrolo[2,3-b]pyridin-3-ylmethyl)-pyridin-2-yl]-amine]	< 1000	< 100
Cc1cnc2[nH]cc(C(=O)c3ccc(Nc4ccc(C5CC5)nc4)nc3F)c2c1 [Compound P-3051, [6-(6-Cyclopropyl-pyridin-3-ylamino)-2-fluoro-pyridin-3-yl]-(5-methyl-1H-pyrrolo[2,3-b]pyridin-3-yl)-methanone]	< 1000	< 100
COc1ccc(Nc2ccc(Cc3c[nH]c4ncnc(OC)c34)c(F)n2)cn1 [Compound P-4001, [6-Fluoro-5-(4-methoxy-7H-pyrrolo[2,3-d]pyrimidin-5-ylmethyl)-pyridin-2-yl]-(6-methoxy-pyridin-3-yl)-amine]	< 1000	< 1000
COc1ccc(Nc2ccc(Cc3c[nH]c4ncnc(C)c34)c(F)n2)cn1 [Compound P-4002, [6-Fluoro-5-(4-methyl-7H-pyrrolo[2,3-d]pyrimidin-5-ylmethyl)-pyridin-2-yl]-(6-methoxy-pyridin-3-yl)-amine]	< 1000	< 1000
COc1ncnc2[nH]cc(Cc3ccc(Nc4ccc(Cl)nc4)nc3F)c12 [Compound P-4003, (6-Chloro-pyridin-3-yl)-[6-fluoro-5-(4-methoxy-7H-pyrrolo[2,3-d]pyrimidin-5-ylmethyl)-pyridin-2-yl]-amine]	> 1000	< 1000
COc1ncnc2[nH]cc(Cc3ccc(Nc4ccc(C5CC5)nc4)nc3F)c12 [Compound P-4004, (6-Cyclopropyl-pyridin-3-yl)-[6-fluoro-5-(4-methoxy-7H-pyrrolo[2,3-d]pyrimidin-5-ylmethyl)-pyridin-2-yl]-amine]	< 100	< 100
CCOc1ccc(Nc2ccc(Cc3c[nH]c4ncnc(OC)c34)c(F)n2)cn1 [Compound P-4005, (6-Ethoxy-pyridin-3-yl)-[6-fluoro-5-(4-methoxy-7H-pyrrolo[2,3-d]pyrimidin-5-ylmethyl)-pyridin-2-yl]-amine]	< 100	< 100
CCOc1ccc(Nc2ccc(Cc3c[nH]c4ncnc(C)c34)c(F)n2)cn1 [Compound P-4006, (6-Ethoxy-pyridin-3-yl)-[6-fluoro-5-(4-methyl-7H-pyrrolo[2,3-d]pyrimidin-5-ylmethyl)-pyridin-2-yl]-amine]	< 100	< 100
CCc1ccc(Nc2ccc(Cc3c[nH]c4ncnc(OC)c34)c(F)n2)cn1 [Compound P-4007, (6-Ethyl-pyridin-3-yl)-[6-fluoro-5-(4-methoxy-7H-pyrrolo[2,3-d]pyrimidin-5-ylmethyl)-pyridin-2-yl]-amine]	< 1000	< 100
CCOc1ccc(Nc2ccc(Cc3c[nH]c4ncnc(OCCOC)c34)c(F)n2)cn1 [Compound P-4008, (6-Ethoxy-pyridin-3-yl)-{6-fluoro-5-[4-(2-methoxy-ethoxy)-7H-pyrrolo[2,3-d]pyrimidin-5-ylmethyl]-pyridin-2-yl}-amine]	< 1000	< 1000
CCc1ccc(Nc2ccc(Cc3c[nH]c4ncnc(C)c34)c(F)n2)cn1 [Compound P-4009, (6-Ethyl-pyridin-3-yl)-[6-fluoro-5-(4-methyl-7H-pyrrolo[2,3-d]pyrimidin-5-ylmethyl)-pyridin-2-yl]-amine]	< 1000	< 100
COc1ncnc2[nH]cc(Cc3ccc(Nc4ccc(C)nc4)nc3F)c12 [Compound P-4010, [6-Fluoro-5-(4-methoxy-7H-pyrrolo[2,3-d]pyrimidin-5-ylmethyl)-pyridin-2-yl]-(6-methyl-pyridin-3-yl)-amine]	< 1000	< 1000
CCn1cc(Nc2ccc(Cc3c[nH]c4ncnc(OC)c34)c(F)n2)cn1 [Compound P-4011, (1-Ethyl-1H-pyrazol-4-yl)-[6-fluoro-5-(4-methoxy-7H-pyrrolo[2,3-d]pyrimidin-5-ylmethyl)-pyridin-2-yl]-amine]	> 1000	< 1000
CCOc1ncnc2[nH]cc(Cc3ccc(Nc4cnn(CC)c4)nc3F)c12 [Compound P-4012, [5-(4-Ethoxy-7H-pyrrolo[2,3-d]pyrimidin-5-ylmethyl)-6-fluoro-pyridin-2-yl]-(1-ethyl-1H-pyrazol-4-yl)-amine]	< 1000	< 1000
CCn1cc(Nc2ccc(Cc3c[nH]c4ncnc(C)c34)c(F)n2)cn1 [Compound P-4013, (1-Ethyl-1H-pyrazol-4-yl)-[6-fluoro-5-(4-methyl-7H-pyrrolo[2,3-d]pyrimidin-5-ylmethyl)-pyridin-2-yl]-amine]	< 1000	< 1000
CCn1cc(Nc2ccc(Cc3c[nH]c4ncnc(OCCOC)c34)c(F)n2)cn1 [Compound P-4014, (1-Ethyl-1H-pyrazol-4-yl)-{6-fluoro-5-[4-(2-methoxy-ethoxy)-7H-pyrrolo[2,3-d]pyrimidin-5-ylmethyl]-pyridin-2-yl}-amine]	> 1000	< 100
COCCOc1ncnc2[nH]cc(Cc3ccc(Nc4ccc(C)nc4)nc3F)c12 [Compound P-4015, {6-Fluoro-5-[4-(2-methoxy-ethoxy)-7H-pyrrolo[2,3-d]pyrimidin-5-ylmethyl]-pyridin-2-yl}-(6-methyl-pyridin-3-yl)-amine]	> 1000	< 100
CCc1ccc(Nc2ccc(Cc3c[nH]c4ncnc(OCCOC)c34)c(F)n2)cn1 [Compound P-4016, (6-Ethyl-pyridin-3-yl)-{6-fluoro-5-[4-(2-methoxy-ethoxy)-7H-pyrrolo[2,3-d]pyrimidin-5-ylmethyl]-pyridin-2-yl}-amine]	< 100	< 100
CCOc1ncnc2[nH]cc(Cc3ccc(Nc4ccc(C)nc4)nc3F)c12 [Compound P-4017, [5-(4-Ethoxy-7H-pyrrolo[2,3-d]pyrimidin-5-ylmethyl)-6-fluoro-pyridin-2-yl]-(6-methyl-pyridin-3-yl)-amine]	< 1000	< 100
CCOc1ncnc2[nH]cc(Cc3ccc(Nc4ccc(OC)nc4)nc3F)c12 [Compound P-4018, [5-(4-Ethoxy-7H-pyrrolo[2,3-d]pyrimidin-5-ylmethyl)-6-fluoro-pyridin-2-yl]-(6-methoxy-pyridin-3-yl)-amine]	< 1000	< 100
COCCOc1ncnc2[nH]cc(Cc3ccc(Nc4ccc(OC)nc4)nc3F)c12 [Compound P-4019, {6-Fluoro-5-[4-(2-methoxy-ethoxy)-7H-pyrrolo[2,3-d]pyrimidin-5-ylmethyl]-pyridin-2-yl}-(6-methoxy-pyridin-3-yl)-amine]	< 1000	< 1000
CCOc1ncnc2[nH]cc(Cc3ccc(Nc4ccc(Br)nc4)nc3F)c12 [Compound P-4020, (6-Bromo-pyridin-3-yl)-[5-(4-ethoxy-7H-pyrrolo[2,3-d]pyrimidin-5-ylmethyl)-6-fluoro-pyridin-2-yl]-amine]	< 1000	< 100
CCOc1ncnc2[nH]cc(Cc3ccc(Nc4cccnc4)nc3F)c12 [Compound P-4021, [5-(4-Ethoxy-7H-pyrrolo[2,3-d]pyrimidin-5-ylmethyl)-6-fluoro-pyridin-2-yl]-pyridin-3-yl-amine]	> 1000	< 1000
COc1ccc(Nc2ccc(C(=O)c3c[nH]c4ncnc(C5CC5)c34)c(F)n2)cn1 [Compound P-4022, (4-cyclopropyl-7H-pyrrolo[2,3-d]pyrimidin-5-yl)-[2-fluoro-6-(6-methoxy-pyridin-3-ylamino)-pyridin-3-yl]-methanone]	< 1000	< 1000

Reference: US8901118B2, “Compounds and methods for kinase modulation, and indications therefor” (Plexxikon Inc., priority 2010, dated 2014)
